Assays:
[1] = system: normal human epidermal keratinocytes (NHEK); assay: Toxicity against human skin cells, MTT-assay; assay type: cell-based
Procedure: (§1) Test compounds were screened for toxicity against cultured human skin cells using normal human epidermal keratinocytes (NHEK) and normal human dermal fibroblasts (NHDF), purchased from CellSystems Biotechnologie GmbH, Germany.
(§2) The NHEK and NHDF cells were used between passages 3 and 10. The cells were seeded with 7.5 and/or 15×10^4 cells/well (microtitreplate) and allowed to attach overnight in an incubator (37° C., 5% CO2). […]
(§3) Phototoxicity was tested by standard MTT-assay (Mossman et al., 1983, Immunological Methods 65:55-63). MTT is an indicator of metabolically active cells. Dependent on enzyme activity in mitochondria a colour reaction can be visualised, which can be measured by ELISA reader (540 nm). The cell viability data were normalised, i.e. the OD values of cells after PDT without photosensitisers were adjusted to one. Each experiment was repeated three times.

[2] = system: normal human dermal fibroblasts (NHDF); assay: Toxicity against human skin cells, MTT-assay; assay type: cell-based
Procedure: as §1, §2, §3

[3] = Chemical stability, qualitative stress tests (HPLC, LC-MS); assay type: physicochemical; conditions: solid, aqueous solution and PBS; 7 days each at 50° C., 70° C., 90° C.
Procedure: The following HPLC methodology was established for the analysis of the exemplary compounds of the invention.
The method involves detection by UV at a wavelength of 420 nm, which is very specific for these compounds. In order to monitor impurities not related to the porphyrin structure (and therefore not absorbing at 420 nm) UV spectra of the whole chromatograms were also recorded between 200 nm and 700 nm by DAD (diode array detector) in certain experiments.
Qualitative stress tests were undertaken on the exemplary compounds of the invention. Analysis was undertaken by HPLC & LC-MS. The compounds were stress tested in solid form, in an aqueous solution and a solution made up in phosphate-buffered saline buffer. The samples were initially incubated for 7 days at 50° C. and a sample removed for testing. The samples were then incubated for a further 7 days at 70° C., samples removed as before and the samples incubated further for 7 days at 90° C. HPLC analysis of freshly prepared solutions was undertaken and compared to the samples after 7, 14 and 21 days incubation. A visual comparison of the chromatograms was then undertaken and the content of the main products and by-products as area percentage values determined (see FIG. 11).

E. coli ATCC 25922 = assay: Cell survival (colony forming unit) with or without illumination; assay type: cell-based, Escherichia coli; conditions: for Log reduction: E. coli
Procedure: (§4) The toxic effects of exemplary compounds of the invention against two bacterial strains, the Gram negative bacterium Escherichia coli (strain ATCC 25922) and the Gram positive bacterium Staphylococcus aureus (methicillin-resistant strain ATTC BAA-44), were evaluated by measuring the extent of growth inhibition (bacteriostatic effect) and growth […] (cytocidal effect) in the dark and upon light exposure. Initial compound screening was undertaken using white light [390-740 nm] (150 mW/cm^2) for various timepoints of a concentration of 3 μM (see Table 1). Further experiments were undertaken on those compounds identified from this initial screen using a light source emitting light at a wavelength between 417-420 nm at 15.2 mW/cm^2, 13.68 J/cm^2 (Waldmann Eclairage SA, France) (see Table 20.
(§5) For the further investigation of the exemplary compounds (Table 2), the following protocol was adopted: • (i) Bacteria (S. aureus BAA-44 and E. coli 25922) were grown in brain heart infusion (BHI) broth until they reached the stationary phase of growth. • (ii) The cells were harvested by centrifugation (3000 g for 15 min) with a table centrifuge, washed with 10 mM PBS at pH 7.4 containing 2.7 mM KCl and 0.14 M NaCl and suspended in PBS at an optical density of 0.7 at 650 nm corresponding to 10^8-10^9 cells/ml. • (iii) The bacteria, at the desired cell density (˜10^8 cells/ml) were incubated for 5 min in the dark with various concentrations of the exemplary compounds. • (iv) At the end of the incubation period the cells were washed three times with PBS, suspended in PBS, transferred into a 96-well microtitre plate (200 μl/well) and illuminated for 15 min with the Waldmann light source (15.2 mW/cm^2; 13.7 J/cm^2). The cells were illuminated from the bottom of the plate laying it on the glass cover of the lamp. • (v) After illumination, cell survival was determined by plating serially diluted aliquots of treated and untreated (i.e. no exemplary compound or light present) cells onto brain heart agar (BHA) and counting the number of colonies after 18-24 h incubation at 37° C.
(§6) the above colony forming unit (CFU) protocol was also used to investigate the photodynamic activity of very low concentrations of the compounds of the invention.

[4] = system: bacterial cells compared to human skin cells; assay: Selectivity for bacteria compared to human skin cells; assay type: cell-based; conditions: at a dose of 0.01 μM
Procedure: as §5, §1
The NHEK and NHDF cells were used between passages 3 and 10. The cells were seeded with 7.5 and/or 15×10^4 cells/well (microtitreplate) and allowed to attach overnight in an incubator (37° C., 5% CO2). After incubation with different concentrations of the selected photosensitisers, the cells were illuminated for fifteen minutes (Light source 236, Waldmann; 15.2 mW/cm^2, 13.7 J/cm^2) and then incubated for 24 hours in the dark.
as §3

[5] = system: S. aureus ATCC BAA-44 (a methicillin resistant S. aureus); assay: Cell survival (colony forming unit) with or without illumination; assay type: cell-based, Staphylococcus aureus; conditions: for dark toxicity against BAA-44: absence of light, at the concentrations tested (FIG. 4); for Log reduction: S. aureus
Procedure: as §4, §5, §6

[6] = system: Guinea Pig skin (intact and abraded); assay: Photo-toxicity test (OECD 406 based); assay type: in vivo
Procedure: Clinical and histological examination of the skin test sites was conducted at 24 and 72 hours post illumination in classical photo-toxicity testing fashion. Biopsies were not done from contiguous sites to prevent any interaction in case of suture. Gross findings were evaluated at the moment of the biopsy. Before giving a score to each endpoint (erythema, oedema and inflammation), data for each subject were compared to the data from the other animals and to control data. A score from 0 to 4 was given for each site and for each endpoint according to the Draize Scale (for inflammation, a scale similar to the Draize Scale was created after microscopic observation of all skin sections, comparing with normal skin and with findings of step-1). A mean score was then calculated for each animal and for each sampling point.

[7] = dark toxicity, 10 μM, no illumination
[8] = photodynamic activity (light toxicity), 0.01 μM, illumination 15 min
[9] = photodynamic activity (light toxicity), 0.1 μM, illumination 15 min
[10] = photodynamic activity (light toxicity), 1 μM, illumination 15 min
[11] = dark toxicity, 1 μM, no illumination
[12] = dark toxicity (no illumination), 0.01 μM
[13] = dark toxicity (no illumination), 10 μM
[14] = photodynamic activity, 0.01 μM, illumination 15 min
[15] = dark toxicity (no illumination), 1 μM
[16] = photodynamic activity, 1 μM, illumination 15 min

Row | SMILES | Survival [1, 7] | Survival [1, 8] | Survival [1, 9] | Survival [2, 11] | Survival [2, 7] | Survival [2, 8] | Survival [2, 9] | Survival [2, 10] | chemical stability under stress test [3] | toxicity to bacterial cells compared to human skin cells [4] | dark toxicity against BAA-44 [5] | Log reduction [5, 14] | also measured
1 | CN(C)CCC[N+](C)(C)CCCOc1ccc(-c2c3nc(cc4ccc([nH]4)c(-c4ccc(OCCC[N+](C)(C)CCCN(C)C)cc4)c4nc(cc5ccc2[nH]5)C=C4)C=C3)cc1.[Cl-].[Cl-] [Compound 8, 5,15-bis-(4-{3-[(3-Dimethylamino-propyl)-dimethylammonio]-propyloxy}-phenyl)-porphyrin dichloride] | 97% | 98% | 33% | 100% | 68% | 100% | 12% | 3% | less stable than Compounds 10 and 12 | preferentially toxic to bacterial cells compared to human skin cells | negligible | 3 | Survival [1, 10]: 0.5%; Log reduction (E. coli ATCC 25922; [12]): <1 (<10^−1); Log reduction (E. coli ATCC 25922; [13]): 2 (10^−2); Log reduction (E. coli ATCC 25922; [14]): <1 (<10^−1); Log reduction (E. coli ATCC 25922; photodynamic activity, 10 μM, illumination 15 min): >6 (>10^−6); Log reduction [5, 15]: <1 (<10^−1); Log reduction [5, 13]: <1 (<10^−1); Log reduction ([5]; photodynamic activity, 0.1 μM, illumination 15 min): 3 (10^−3); Log reduction [5, 16]: 6 (10^−6)
2 | C[N+](C)(C)CCCOc1ccc(-c2c3nc(cc4ccc([nH]4)c(-c4ccc(OCCC[N+](C)(C)C)cc4)c4nc(cc5ccc2[nH]5)C=C4)C=C3)cc1.[Cl-].[Cl-] [Compound 10, 5,15-bis-[4-(3-Trimethylammonio-propyloxy)-phenyl]-porphyrin dichloride] | 51% | 62% | 1.0% | 100% | 91% | 80% | 8% | 0.5% | good stability | preferentially toxic to bacterial cells compared to human skin cells | negligible | >4 (>10^−4) | Survival [1, 11]: 100%; photo-toxic potential ([6]; 32 μM topical formulation, 24 hours on intact and abraded skin, then 30 minute light exposure, examined 24 and 72 hours post illumination): no clinical signs or symptoms or histological findings that suggested any photo-toxic potential; damage to the surface of the skin ([6]; 32 μM, in the absence of light): did not result in any damage to the surface of the skin; Concentration of Compound 10 required to obtain a 3 log reduction in cells (μM) (E. coli ATCC 25922; E. coli ATCC 25922): 0.1 μM; Log reduction (E. coli ATCC 25922; [15]): <1 (<10^−1); Log reduction (E. coli ATCC 25922; [16]): >6 (>10^−6); bacteria killed ([5]; BAA-44, 0.0025 μM, with light): 90%; Concentration of Compound 10 required to obtain a 3 log reduction in cells (μM) ([5]; Staphylococcus aureus ATCC BAA-44): 0.005 μM; Log reduction [5, 12]: <1 (<10^−1)
